Assays:
Beta-glucuronidase = target: T1, Beta-glucuronidase (Bos taurus, UniProt A3KMY8); experiment: Inhibition of bovine liver beta-glucuronidase using p-nitrophenyl-beta-D-glucuronide as substrate preincubated for 30 mins followed by substrate addition by spectrophotometric analysis
T1 sequence (A3KMY8 whole entry): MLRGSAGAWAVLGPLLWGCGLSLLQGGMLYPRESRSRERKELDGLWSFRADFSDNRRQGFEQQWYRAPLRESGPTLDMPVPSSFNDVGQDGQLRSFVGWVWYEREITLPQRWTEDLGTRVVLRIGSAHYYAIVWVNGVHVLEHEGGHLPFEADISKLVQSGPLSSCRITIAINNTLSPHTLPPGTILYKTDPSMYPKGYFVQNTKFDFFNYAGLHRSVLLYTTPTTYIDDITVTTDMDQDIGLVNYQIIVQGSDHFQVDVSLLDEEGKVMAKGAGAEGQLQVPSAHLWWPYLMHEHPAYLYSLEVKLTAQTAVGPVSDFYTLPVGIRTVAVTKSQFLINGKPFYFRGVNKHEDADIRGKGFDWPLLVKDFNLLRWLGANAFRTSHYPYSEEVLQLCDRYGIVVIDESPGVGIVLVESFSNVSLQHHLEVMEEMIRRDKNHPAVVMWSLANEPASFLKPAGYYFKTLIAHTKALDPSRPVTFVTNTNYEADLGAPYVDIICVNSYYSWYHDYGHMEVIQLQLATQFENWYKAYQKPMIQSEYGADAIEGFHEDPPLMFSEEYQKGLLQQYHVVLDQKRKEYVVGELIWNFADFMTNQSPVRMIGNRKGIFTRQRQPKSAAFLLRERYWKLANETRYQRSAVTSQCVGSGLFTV

[1] = target: T2, Beta-glucuronidase (Bos taurus) (UniProt A3KMY8); experiment: Potency index, ratio of saccharic acid 1,4-lactone IC50 to test compound IC50 for bovine liver beta-glucuronidase
T2 sequence (whole entry): T1 sequence (A3KMY8 whole entry)

## Cc1cc(S(=O)(=O)Nc2cccc3ncccc23)c(C)cc1Cl
Beta-glucuronidase
  IC50: 23.5 µM

## COc1ccc(S(=O)(=O)Nc2cccc3cccnc23)cc1OC
Beta-glucuronidase
  IC50: 42.6 µM

## O=S(=O)(Nc1cccc2ncccc12)c1ccc(Cl)cc1Cl
Beta-glucuronidase
  IC50: 2.1 µM
[1]
  Ratio IC50: 24

## O=[N+]([O-])c1ccc(S(=O)(=O)Oc2cccc3cccnc23)cc1
Beta-glucuronidase
  IC50: 15.4 µM

## O=S(=O)(Nc1cccc2cccnc12)c1ccc(Cl)cc1
Beta-glucuronidase
  IC50: 33.4 µM

## Cc1cc(S(=O)(=O)Nc2cccc3cccnc23)c(C)cc1Cl
Beta-glucuronidase
  IC50: 24.5 µM

## O=S(=O)(Nc1cccc2ncccc12)c1cc(Cl)ccc1Cl
Beta-glucuronidase
  IC50: 4.5 µM

## CCCc1ccc(S(=O)(=O)Oc2cccc3cccnc23)cc1
Beta-glucuronidase
  IC50: 84.4 µM

## COc1ccc(-c2nc3ccccc3c(=O)[nH]2)cc1
Beta-glucuronidase
  IC50: 1.1 µM

## CCCc1ccc(S(=O)(=O)Nc2cccc3ncccc23)cc1
Beta-glucuronidase
  IC50: 75.1 µM

## COc1ccc(S(=O)(=O)Nc2cccc3ncccc23)cc1OC
Beta-glucuronidase
  IC50: 43.2 µM

## O=[N+]([O-])c1ccccc1S(=O)(=O)Nc1cccc2cccnc12
Beta-glucuronidase
  IC50: 18.2 µM
[1]
  Ratio IC50: 3

## O=[N+]([O-])c1cccc(S(=O)(=O)Nc2cnc3ccccc3c2)c1
Beta-glucuronidase
  IC50: 46.2 µM

## COc1ccc(S(=O)(=O)Nc2cnc3ccccc3c2)cc1OC
Beta-glucuronidase
  IC50: 33.5 to 53.6 µM

## Cc1cc(S(=O)(=O)Nc2cnc3ccccc3c2)c(C)cc1Cl
Beta-glucuronidase
  IC50: 34.4 µM

## CCCc1ccc(S(=O)(=O)Nc2cccc3cccnc23)cc1
Beta-glucuronidase
  IC50: 70.5 µM

## CCCc1ccc(S(=O)(=O)Nc2cnc3ccccc3c2)cc1
Beta-glucuronidase
  IC50: 27.2 µM

## Cc1cc(S(=O)(=O)Oc2cccc3cccnc23)c(C)cc1Cl
Beta-glucuronidase
  IC50: 41.6 µM

## O=[N+]([O-])c1cccc(S(=O)(=O)Nc2cccc3cccnc23)c1
Beta-glucuronidase
  IC50: 16.1 µM
[1]
  Ratio IC50: 3

## COc1ccc(S(=O)(=O)Nc2cccc3cccnc23)cc1
Beta-glucuronidase
  IC50: 49.2 µM

## COc1ccc(Br)cc1S(=O)(=O)Nc1cccc2cccnc12
Beta-glucuronidase
  IC50: 68.5 µM

## O=S(=O)(Oc1cccc2cccnc12)c1ccc(Cl)cc1Cl
Beta-glucuronidase
  IC50: 9.7 µM

## COc1ccc(Br)cc1S(=O)(=O)Nc1cnc2ccccc2c1
Beta-glucuronidase
  IC50: 66.5 µM

## O=S(=O)(Nc1cccc2cccnc12)c1ccc(Cl)cc1Cl
Beta-glucuronidase
  IC50: 6.1 µM
[1]
  Ratio IC50: 8

## O=[N+]([O-])c1ccc(S(=O)(=O)Nc2cnc3ccccc3c2)cc1
Beta-glucuronidase
  IC50: 31.6 µM

## COc1ccc(Br)cc1S(=O)(=O)Nc1cccc2ncccc12
Beta-glucuronidase
  IC50: 50.2 µM

## CCCCCCCCS(=O)(=O)Nc1cnc2ccccc2c1
Beta-glucuronidase
  IC50: 75.1 µM

## O=[N+]([O-])c1ccccc1S(=O)(=O)Oc1cccc2cccnc12
Beta-glucuronidase
  IC50: 6.4 µM

## O=[N+]([O-])c1ccc(S(=O)(=O)Nc2cccc3cccnc23)cc1
Beta-glucuronidase
  IC50: 31.3 µM

## O=[N+]([O-])c1cccc(S(=O)(=O)Nc2cccc3ncccc23)c1
Beta-glucuronidase
  IC50: 12.2 µM

## COc1ccc(-c2nc3ccccc3c(=O)[nH]2)cc1O
Beta-glucuronidase
  IC50: 2.8 µM

## O=[N+]([O-])c1ccccc1S(=O)(=O)Nc1cnc2ccccc2c1
Beta-glucuronidase
  IC50: 8.1 µM

## O=S(=O)(Nc1cccc2cccnc12)c1ccccc1
Beta-glucuronidase
  IC50: 66.4 µM

## O=S(=O)(Oc1cccc2cccnc12)c1ccccc1
Beta-glucuronidase
  IC50: 49.5 µM

## O=S(=O)(Nc1cnc2ccccc2c1)c1ccc(Cl)cc1Cl
Beta-glucuronidase
  IC50: 8.4 µM
[1]
  Ratio IC50: 6

## O=S(=O)(Nc1cnc2ccccc2c1)c1cc(Cl)ccc1Cl
Beta-glucuronidase
  IC50: 5.5 µM

## CS(=O)(=O)Nc1cccc2cccnc12
Beta-glucuronidase
  IC50: 48.6 µM

## O=[N+]([O-])c1cccc(S(=O)(=O)Oc2cccc3cccnc23)c1
Beta-glucuronidase
  IC50: 30.1 µM

## O=S(=O)(Nc1cnc2ccccc2c1)c1ccccc1
Beta-glucuronidase
  IC50: 53.4 µM

## O=S(=O)(Nc1cccc2ncccc12)c1cc(Cl)cc(Cl)c1O
Beta-glucuronidase
  IC50: 1.6 µM
[1]
  Ratio IC50: 30

## COc1ccc(Br)cc1S(=O)(=O)Oc1cccc2cccnc12
Beta-glucuronidase
  IC50: 49.5 µM

— ChEMBL document CHEMBL4130423, “Synthesis, in vitro β-glucuronidase inhibitory potential and molecular docking studies of quinolines” (Eur J Med Chem, 2017)
